Measurements taken from patent US12643910B2, “Substituted pyrazolo[3,4-b]pyridines as ectonucleotide pyrophosphatase/phosphodiesterase 1 (ENPP1) modulators” (SANFORD BURNHAM PREBYS MEDICAL DISCOVERY INSTITUTE, priority 2019, dated 2026).

How the values were obtained:
[1] = biological target: T1, ENPP3 (Homo sapiens, UniProt O14638); assay: ENPP3 Km ATP assay; assay type: biochemical; conditions: ATP at Km
T1 sequence (O14638 1-875): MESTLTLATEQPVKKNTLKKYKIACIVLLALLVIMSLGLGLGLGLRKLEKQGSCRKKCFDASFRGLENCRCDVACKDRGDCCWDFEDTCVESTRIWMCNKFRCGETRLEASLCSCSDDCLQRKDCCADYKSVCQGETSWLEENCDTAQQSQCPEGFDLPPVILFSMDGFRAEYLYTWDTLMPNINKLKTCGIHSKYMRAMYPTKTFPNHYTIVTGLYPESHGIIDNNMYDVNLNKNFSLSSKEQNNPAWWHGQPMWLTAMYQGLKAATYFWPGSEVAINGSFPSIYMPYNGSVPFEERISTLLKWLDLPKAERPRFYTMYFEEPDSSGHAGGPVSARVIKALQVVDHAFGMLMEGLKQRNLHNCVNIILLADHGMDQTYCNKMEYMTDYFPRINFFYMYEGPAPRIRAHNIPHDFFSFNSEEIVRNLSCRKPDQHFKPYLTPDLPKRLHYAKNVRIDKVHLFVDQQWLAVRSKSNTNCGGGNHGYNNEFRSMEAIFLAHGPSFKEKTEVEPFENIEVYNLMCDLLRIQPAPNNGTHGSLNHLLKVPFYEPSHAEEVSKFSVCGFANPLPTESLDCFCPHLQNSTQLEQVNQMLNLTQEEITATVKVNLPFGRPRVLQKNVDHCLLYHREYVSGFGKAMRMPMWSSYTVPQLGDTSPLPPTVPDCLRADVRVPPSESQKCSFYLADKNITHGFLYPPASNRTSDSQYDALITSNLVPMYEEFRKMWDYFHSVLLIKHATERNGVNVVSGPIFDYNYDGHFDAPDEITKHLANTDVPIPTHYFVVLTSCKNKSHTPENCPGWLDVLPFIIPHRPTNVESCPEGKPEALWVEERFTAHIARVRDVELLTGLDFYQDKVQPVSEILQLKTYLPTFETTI

[2] = biological target: T2, human ENPP1 (Homo sapiens, UniProt P22413); assay: ENPP1 assay with ATP substrate (Transcreener AMP2/GMP2 TR-FRET); assay type: biochemical; conditions: 1 hour at room temperature
T2 construct: made in house
T2 sequence (P22413 1-925): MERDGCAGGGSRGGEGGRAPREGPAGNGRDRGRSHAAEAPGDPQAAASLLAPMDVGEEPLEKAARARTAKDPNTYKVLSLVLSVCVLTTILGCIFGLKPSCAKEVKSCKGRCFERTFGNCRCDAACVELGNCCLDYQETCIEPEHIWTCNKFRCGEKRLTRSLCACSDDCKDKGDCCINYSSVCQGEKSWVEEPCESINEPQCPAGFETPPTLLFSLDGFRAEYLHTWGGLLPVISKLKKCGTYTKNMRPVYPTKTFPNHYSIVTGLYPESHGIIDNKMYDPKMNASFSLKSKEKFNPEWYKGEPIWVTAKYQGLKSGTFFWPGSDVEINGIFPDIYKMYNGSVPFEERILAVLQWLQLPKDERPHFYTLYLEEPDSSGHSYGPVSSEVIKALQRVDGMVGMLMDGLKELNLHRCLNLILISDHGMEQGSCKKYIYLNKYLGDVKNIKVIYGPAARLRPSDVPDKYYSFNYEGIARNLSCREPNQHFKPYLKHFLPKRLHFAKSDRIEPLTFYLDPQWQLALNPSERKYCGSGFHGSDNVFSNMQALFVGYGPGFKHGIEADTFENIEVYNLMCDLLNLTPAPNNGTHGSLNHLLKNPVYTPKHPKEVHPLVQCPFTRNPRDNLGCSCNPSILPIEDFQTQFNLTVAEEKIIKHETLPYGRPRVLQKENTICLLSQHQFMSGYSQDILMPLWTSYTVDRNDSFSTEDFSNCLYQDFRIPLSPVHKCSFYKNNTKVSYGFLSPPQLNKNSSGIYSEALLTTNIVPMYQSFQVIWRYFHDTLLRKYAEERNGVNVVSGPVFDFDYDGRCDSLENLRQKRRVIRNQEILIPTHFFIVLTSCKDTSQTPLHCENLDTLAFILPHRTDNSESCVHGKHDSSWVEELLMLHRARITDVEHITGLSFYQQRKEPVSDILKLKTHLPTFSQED
In short: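 Reaction ran 1 h at room temperature in pH 7.5 Tris with MgCl2, TCEP, Tween 20 and 1% DMSO. ATP was added as a 300 nM stock and enzyme as an 8.5 μM stock. After EDTA stop, AMP was read by TR-FRET tracer displacement. Percent inhibition used enzyme/no-enzyme controls; IC50 was fitted with a variable slope.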

NS(=O)(=O)c1ccc(CNc2ncnc3scc(-c4ccccc4)c23)s1 [Example 1.28, 5-(((5-Phenylthieno[2,3-d]pyrimidin-4-yl)amino)methyl)thiophene-2-sulfonamide]
IC50 [1]: > 20 µM
IC50 [2]: 1 to 20 µM

CCSc1nc(NCc2ccc(S(N)(=O)=O)cc2)c2cnn(C)c2n1 [Example 2.108, 4-((6-(Ethylsulfanyl)-1-methyl-1H-pyrazolo[3,4-d]pyrimidin-4-yl)aminomethyl)-benzenesulfonamide]
IC50 [1]: < 0.1 µM
IC50 [2]: < 0.1 µM

Cc1csc2c(N3CCC(NCCCc4ccncc4Cl)CC3)ncnc12 [Example 3.13, N-(3-(3-Chloropyridin-4-yl)propyl)-1-(7-methylthieno[3,2-d]pyrimidin-4-yl)piperidin-4-amine]
IC50 [1]: > 20 µM
IC50 [2]: 0.1 to 1 µM

CC(C)Nc1cc(NCc2ccc(S(N)(=O)=O)cc2)c2cnn(C)c2n1 [Example 2.74, 4-(((6-(Isopropylamino)-1-methyl-1H-pyrazolo[3,4-b]pyridin-4-yl)amino)methyl)benzenesulfonamide]
IC50 [1]: 1 to 20 µM
IC50 [2]: 1 to 20 µM

c1ccc(-c2csc3nc(-c4ccccn4)nc(NCc4cccnc4)c23)cc1 [Example 1.1, 5-Phenyl-2-(pyridin-2-yl)-N-(pyridin-3-ylmethyl)thieno[2,3-d]pyrimidin-4-amine]
IC50 [1]: > 20 µM
IC50 [2]: 1 to 20 µM

Cn1nc(-c2ccccc2)c2c(NCc3ccc(S(N)(=O)=O)cc3)nc(N3CCCCC3)nc21 [Example 2.132, 4-((1-Methyl-3-phenyl-6-piperidino-1H-pyrazolo[3,4-d]pyrimidin-4-yl)aminomethyl)benzenesulfonamide]
IC50 [1]: 0.1 to 1 µM
IC50 [2]: < 0.1 µM

NS(=O)(=O)c1ccc(CNc2nc(N3CCCCC3)nc3scc(-c4ccccc4)c23)cc1 [Example 1.39, 4-(((5-Phenyl-2-(piperidin-1-yl)thieno[2,3-d]pyrimidin-4-yl)amino)methyl)-benzenesulfonamide]
IC50 [1]: 0.1 to 1 µM
IC50 [2]: 0.1 to 1 µM

N#Cc1ccc(CNc2nc(-c3ccccn3)nc3scc(-c4ccccc4)c23)cc1 [Example 1.11, 4-[(5-Phenyl-2-pyridin-2-yl-thieno[2,3-d]pyrimidin-4-ylamino)-methyl]-benzonitrile]
IC50 [1]: > 20 µM
IC50 [2]: > 20 µM

Cn1ncc2c(NCc3ccc(S(N)(=O)=O)cc3)nccc21 [Example 2.66, 4-(((1-Methyl-1H-pyrazolo[4,3-c]pyridin-4-yl)amino)methyl)benzenesulfonamide]
IC50 [1]: 1 to 20 µM
IC50 [2]: 1 to 20 µM

Cc1csc2c(N3CCC(NCc4ccc(F)cc4)CC3)ncnc12 [Example 3.42, N-(4-Fluorobenzyl)-1-(7-methylthieno[3,2-d]pyrimidin-4-yl)piperidin-4-amine]
IC50 [1]: > 20 µM
IC50 [2]: 1 to 20 µM

CNc1nc(NCc2ccc(S(N)(=O)=O)cc2)c2cnn(C)c2n1 [Example 2.27, 4-(((1-Methyl-6-(methylamino)-1H-pyrazolo[3,4-d]pyrimidin-4-yl)amino)methyl)-benzenesulfonamide]
IC50 [1]: 0.1 to 1 µM
IC50 [2]: < 0.1 µM

Cc1csc2c(N3CCC(OCCCc4ccc(F)cc4)CC3)ncnc12 [Example 3.45, 4-(4-(3-(4-Fluorophenyl)propoxy)piperidin-1-yl)-7-methylthieno[3,2-d]pyrimidine]
IC50 [1]: > 20 µM
IC50 [2]: > 20 µM

Cc1nc(N2CCC(NCCCc3ccncc3)CC2)c2cnn(C)c2n1 [Example 2.51, 1-(1,6-Dimethyl-1H-pyrazolo[3,4-d]pyrimidin-4-yl)-N-(3-(pyridin-4-yl)propyl)piperidin-4-amine]
IC50 [1]: > 20 µM
IC50 [2]: > 20 µM

Cc1csc2c(N3CCC(NCc4ccccc4)CC3)ncnc12 [Example 3.0, N-Benzyl-1-(7-methylthieno[3,2-d]pyrimidin-4-yl)piperidin-4-amine]
IC50 [1]: > 20 µM
IC50 [2]: 0.1 to 1 µM

Cc1nc(NCc2ccc(S(N)(=O)=O)cc2)c2c3c(sc2n1)CCCC3 [Example 1.64, 4-((2-Methyl-5,6,7,8-tetrahydro[1]benzothieno[2,3-d]pyrimidin-4-yl)aminomethyl)-benzenesulfonamide]
IC50 [1]: 1 to 20 µM
IC50 [2]: > 20 µM

Cn1nc(-c2ccccc2)c2c(NCc3ccc(S(N)(=O)=O)cc3)ncnc21 [Example 2.44, 4-(((1-Methyl-3-phenyl-1H-pyrazolo[3,4-d]pyrimidin-4-yl)amino)methyl)-benzenesulfonamide]
IC50 [1]: < 0.1 µM
IC50 [2]: < 0.1 µM

Cc1ccc(CNc2nc(-c3ccccn3)nc3scc(-c4ccccc4)c23)cc1 [Example 1.7, (4-Methyl-benzyl)-(5-phenyl-2-pyridin-2-yl-thieno[2,3-d]pyrimidin-4-yl)-amine]
IC50 [1]: > 20 µM
IC50 [2]: > 20 µM

CN1CCC(n2ncc3c(NCc4ccc(S(N)(=O)=O)cc4)ncnc32)CC1 [Example 2.43, 4-(((1-(1-Methylpiperidin-4-yl)-1H-pyrazolo[3,4-d]pyrimidin-4-yl)amino)methyl)-benzenesulfonamide]
IC50 [1]: 1 to 20 µM
IC50 [2]: > 20 µM

CN(C)CCNc1nc(NCc2ccc(S(N)(=O)=O)cc2)c2c(-c3ccccc3)csc2n1 [Example 1.60, 4-((2-(2-Dimethylamino)ethylamino-5-phenylthieno[2,3-d]pyrimidin-4-yl)aminomethyl)-benzenesulfonamide]
IC50 [1]: < 0.1 µM
IC50 [2]: < 0.1 µM

Cc1csc2c(N3CCC(NCCCc4cccc(F)c4)CC3)ncnc12 [Example 3.41, N-(3-(3-Fluorophenyl)propyl)-1-(7-methylthieno[3,2-d]pyrimidin-4-yl)piperidin-4-amine]
IC50 [1]: > 20 µM
IC50 [2]: 0.1 to 1 µM

NS(=O)(=O)c1ccc(CNc2nc(NC3CCCCC3)nc3scc(-c4ccccc4)c23)cc1 [Example 1.40, 4-(((2-(Cyclohexylamino)-5-phenylthieno[2,3-d]pyrimidin-4-yl)amino)methyl)-benzenesulfonamide]
IC50 [1]: 1 to 20 µM
IC50 [2]: 0.1 to 1 µM

Cc1noc2ncnc(NCc3ccc(S(N)(=O)=O)cc3)c12 [Example 2.59, 4-(((3-Methylisoxazolo[5,4-d]pyrimidin-4-yl)amino)methyl)benzenesulfonamide]
IC50 [1]: 1 to 20 µM
IC50 [2]: 1 to 20 µM

CCOc1nc(NCc2ccc(S(N)(=O)=O)cc2)c2cnn(C)c2n1 [Example 2.93, 4-((6-Ethoxy-1-methyl-1H-pyrazolo[3,4-d]pyrimidin-4-yl)aminomethyl)-benzenesulfonamide]
IC50 [1]: 0.1 to 1 µM
IC50 [2]: < 0.1 µM

Cc1csc2c(N3CCC(NC(=O)/C=C/c4ccncc4Cl)CC3)ncnc12 [Example 3.11, (E)-3-(3-Chloropyridin-4-yl)-N-(1-(7-methylthieno[3,2-d]pyrimidin-4-yl)piperidin-4-yl)acrylamide]
IC50 [1]: > 20 µM
IC50 [2]: 1 to 20 µM

Cn1ncc2c(NCc3ccc(S(N)(=O)=O)cc3)nc(N)nc21 [Example 2.37, 4-(((6-Amino-1-methyl-1H-pyrazolo[3,4-d]pyrimidin-4-yl)amino)methyl)-benzenesulfonamide]
IC50 [1]: 0.1 to 1 µM
IC50 [2]: 0.1 to 1 µM

Cn1ncc2c(OCc3ccc(S(N)(=O)=O)cc3)ncnc21 [Example 2.137, 4-((1-Methyl-1H-pyrazolo[3,4-d]pyrimidin-4-yl)oxymethyl)benzenesulfonamide]
IC50 [1]: 1 to 20 µM
IC50 [2]: 1 to 20 µM
